{
  "source": "paper PMC7470779",
  "about": "(Acta Pharmacologica Sinica, 2019)",
  "key": {"[1]": {"target": "T1, human transporter MRP2 (Homo sapiens, UniProt Q92887)", "assay": "Transcellular transport of acyclovir in MRP2-MDCK cells", "format": "in vitro ADME", "conditions": "acyclovir 10 μmol/L, TER 10 μmol/L, MK571 20 μmol/L"}, "[2]": {"target": "T2, human OAT1 (Homo sapiens, UniProt Q4U2R8)", "T2 sequence (Q4U2R8 1-550 isoform Q4U2R8-2)": "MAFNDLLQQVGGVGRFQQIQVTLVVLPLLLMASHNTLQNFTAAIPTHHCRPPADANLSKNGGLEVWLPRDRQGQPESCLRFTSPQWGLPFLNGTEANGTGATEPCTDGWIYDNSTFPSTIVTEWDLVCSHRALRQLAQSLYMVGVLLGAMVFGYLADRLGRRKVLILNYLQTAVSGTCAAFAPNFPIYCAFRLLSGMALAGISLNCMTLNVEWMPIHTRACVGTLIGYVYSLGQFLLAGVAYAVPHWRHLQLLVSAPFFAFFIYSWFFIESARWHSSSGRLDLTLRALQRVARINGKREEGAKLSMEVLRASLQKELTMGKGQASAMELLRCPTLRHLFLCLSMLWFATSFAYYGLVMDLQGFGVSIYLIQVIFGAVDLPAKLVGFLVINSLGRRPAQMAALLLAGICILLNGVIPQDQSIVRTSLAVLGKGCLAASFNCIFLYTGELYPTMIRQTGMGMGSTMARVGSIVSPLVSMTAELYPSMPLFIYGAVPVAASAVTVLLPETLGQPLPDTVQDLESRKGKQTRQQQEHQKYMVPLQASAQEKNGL", "assay": "Inhibition of 6-CF uptake in hOAT1-HEK293 cells", "format": "cell-based"}, "[3]": {"target": "T3, human OAT3 (Homo sapiens, UniProt Q8TCC7)", "T3 sequence (Q8TCC7 1-542)": "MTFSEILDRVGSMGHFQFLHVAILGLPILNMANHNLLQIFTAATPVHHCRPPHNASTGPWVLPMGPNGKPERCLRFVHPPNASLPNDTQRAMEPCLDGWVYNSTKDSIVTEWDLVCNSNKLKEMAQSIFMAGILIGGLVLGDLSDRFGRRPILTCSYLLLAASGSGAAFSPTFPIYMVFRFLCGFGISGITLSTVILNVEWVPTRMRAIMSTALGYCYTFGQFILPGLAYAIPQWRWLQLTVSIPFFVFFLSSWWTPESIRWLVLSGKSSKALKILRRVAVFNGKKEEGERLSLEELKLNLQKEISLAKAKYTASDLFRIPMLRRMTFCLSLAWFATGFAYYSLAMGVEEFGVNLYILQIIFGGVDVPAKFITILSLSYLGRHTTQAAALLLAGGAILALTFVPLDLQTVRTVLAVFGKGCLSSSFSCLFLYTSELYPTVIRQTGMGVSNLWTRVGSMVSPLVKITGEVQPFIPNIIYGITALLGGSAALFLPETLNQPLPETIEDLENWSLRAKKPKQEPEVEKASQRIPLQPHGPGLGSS", "assay": "Acyclovir uptake in hOAT3-HEK293 cells", "format": "cell-based"}, "[4]": {"target": "T3, human OAT3", "assay": "Inhibition of 6-CF uptake in hOAT3-HEK293 cells", "format": "cell-based"}, "[5]": {"target": "T2, human OAT1", "assay": "Acyclovir uptake in hOAT1-HEK293 cells", "format": "cell-based"}, "[6]": {"assay": "Cumulative urinary excretion of acyclovir in rats", "conditions": "acyclovir alone 30 mg/kg iv"}, "[7]": {"assay": "in vivo", "conditions": "Sprague-Dawley, rat, iv, 30 mg/kg, AUC0-∞"}, "[8]": {"target": "T3, human OAT3", "assay": "TER cellular uptake in hOAT3-HEK293 cells", "format": "in vitro ADME", "conditions": "TER 20 μmol/L, 20 min, with or without probenecid 200 μmol/L"}, "[9]": {"target": "T2, human OAT1", "assay": "TER cellular uptake in hOAT1-HEK293 cells", "format": "in vitro ADME", "conditions": "TER 20 μmol/L, 20 min, with or without probenecid 200 μmol/L"}, "[10]": {"conditions": "cited from earlier work"}, "[11]": {"target": "T1, human transporter MRP2", "assay": "Accumulation of acyclovir in MRP2-MDCK cells", "format": "cell-based"}, "[12]": {"conditions": "Sprague-Dawley, rat, plasma, intraperitoneal"}},
  "data": [
    {"smiles": "CN(C)C(=O)CCSC(SCCC(=O)O)c1cccc(/C=C/c2ccc3ccc(Cl)cc3n2)c1", "note": "(centres unmarked) [MK571]", "values": [
      {"measurement": "ER value of acyclovir reduced to, in the presence of inhibitor", "setting": "[1]", "value": 1.46},
      {"measurement": "effect on the plasma concentration and plasma clearance of acyclovir", "setting": "rats, coadministration", "value": "no effect"}
    ]},
    {"smiles": "Cc1oncc1C(=O)Nc1ccc(C(F)(F)F)cc1", "note": "[LEF, leflunomide]", "values": [
      {"measurement": "inhibitory effect on OAT1 (6-CF uptake)", "setting": "[2]; hOAT1-HEK293 cells, LEF 1–100 μmol/L", "value": "no significant inhibitory effect"},
      {"measurement": "effect on OAT3-mediated acyclovir transport (uptake)", "setting": "[3]", "value": "inhibited"},
      {"measurement": "IC50", "setting": "[4]", "value": 4.1, "unit": "µM"},
      {"measurement": "effect on OAT1-mediated acyclovir transport (uptake)", "setting": "[5]", "value": "only inhibited OAT3-mediated acyclovir transport"}
    ]},
    {"smiles": "Nc1nc2c(ncn2COCCO)c(=O)[nH]1", "note": "[acyclovir]", "values": [
      {"measurement": "24-h cumulative urinary excretion of acyclovir (% of the dose recovered)", "setting": "[6]", "value": 78.4, "unit": "%"},
      {"measurement": "AUC(0-inf)", "setting": "[7]", "value": "30600 ± 4530", "unit": "ng·h/mL"},
      {"measurement": "AUC(0-inf)", "setting": "[7]; rats, acyclovir 30 mg/kg iv, acyclovir alone", "value": "25800 ± 3020", "unit": "ng·h/mL"}
    ]},
    {"smiles": "C/C(O)=C(\\C#N)C(=O)Nc1ccc(C(F)(F)F)cc1", "note": "[TER, teriflunomide]", "values": [
      {"measurement": "IC50", "setting": "[2]", "value": 3.39, "unit": "µM"},
      {"measurement": "substrate of OAT3", "setting": "[8]", "value": "not a substrate"},
      {"measurement": "substrate of OAT1", "setting": "[9]", "value": "not a substrate"},
      {"measurement": "half-life of TER in the plasma", "setting": "[10]", "value": "approximately two weeks"},
      {"measurement": "ER value of acyclovir reduced to, in the presence of inhibitor", "setting": "[1]", "value": 1.46},
      {"measurement": "effect on OAT3-mediated acyclovir transport (uptake)", "setting": "[3]", "value": "significantly inhibited"},
      {"measurement": "IC50", "setting": "[4]", "value": 0.87, "unit": "µM"},
      {"measurement": "IC50", "setting": "[11]", "value": 4.91, "unit": "µM"},
      {"measurement": "mean plasma concentration of TER", "setting": "[12]", "value": "25900 to 37800", "unit": "ng/mL"},
      {"measurement": "time at which peak plasma concentration of TER was reached", "setting": "[12]", "value": 2, "unit": "h"},
      {"measurement": "effect on OAT1-mediated acyclovir transport (uptake)", "setting": "[5]", "value": "significantly inhibited"}
    ]}
  ]
}
